Tests used:
mPTP [1] = test: mPTP activity (Ca2+ retention) assay in isolated rat liver mitochondria; type: biochemical; settings: examples tested by different contract research organisations, believed comparable
Outline: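 pIC50 was taken from Fluo5N fluorescence at 10 min after a 75 μM CaCl2 bolus, scaled between DMSO (0%) and 5 μM cyclosporin A (100%). Compounds, ten half-log concentrations from 30 μM to 1 nM final, sat 10 min at RT with fresh female Sprague Dawley rat liver mitochondria energized by succinate plus rotenone.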

mPTP [2] = test: mPTP activity assay in isolated rat brain mitochondria; type: biochemical; settings: fluorescence at 10 min timepoint
Outline: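 Fresh brain mitochondria from female Sprague Dawley rats, digitonin-washed, in pH 7.4 mannitol/MOPS/KCl buffer with pyruvate, malate, ADP, oligomycin A and 2 μM Fluo5N. Preincubated with compounds 10 min at RT. Fluo5N fluorescence then read every 3 sec for 10 min on FLIPR Tetra.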

mPTP [3] = test: Human platelet mitochondria assay (annexin V / PS exposure by flow cytometry); type: cell-based; settings: human blood platelets stimulated with thrombin/convulxin/calcium; % AnV-APC positive platelets
Procedure: The mPTP cell based assay was performed using a transformative functional cell-(human blood platelets)-based assay by flow cytometry. Procoagulant platelets expose phosphatidylserine (PS), allowing a burst of thrombin generation that is responsible for producing an occlusive thrombus. While an increase in cytosolic Ca^2+ concentration is required for deriving platelets to become activated, a higher and more sustained increases in cytosolic Ca^2+ concentration is needed to commit some platelets to becoming procoagulant. Simulation of platelets results in the rapid influx of Ca^2+ across the platelet membrane. The Ca^2+ is then sequestered by mitochondria until the threshold for mPTP opening is reached, at which point the pore opens and the mitochondrial membrane potential is dissipated. mPTP opening and subsequent disruption in mitochondrial membrane potential leads to release of a high concentration of calcium stored in mitochondria into the platelet's cytosol (“supramaximal calcium signal” [1]) which is known to be a requisite initiating signal transduction leading to externalisation of procoagulant PS to the outer leaflet of platelets' plasma membrane. PS externalisation of stimulated platelets can be quantified in live platelets using standard annexin V (AnV) labelling by flow cytometry, enabling pharmacological characterisation of mPTP inhibitors.
Fresh human blood (9 ml) was collected from consenting donors into 3.2% sodium citrate. Acid citrate dextrose (85 mM tri-sodium citrate, 71 mM citric acid, and 111 mM D-glucose) was added (1:7 vol/vol) and platelet-rich plasma was separated by centrifugation (200 g, 10 minutes, ambient temperature, and without any brake). Platelets were pelleted by centrifugation (600 g, 10 minutes, ambient temperature) in the presence of prostaglandin E1 (100 nM) and apyrase (0.02 U/mL). Pelleted platelets were resuspended in N-2-hydroxyethylpiperazine-N′-2-ethanesulfonic acid (HEPES)-buffered saline supplemented with D-glucose (135 mM NaCl, 10 mM HEPES, 3 mM KCl, 1 mM MgCl2, 0.34 mM NaH2PO4, 5 mM D-glucose, 0.1% bovine serum albumin, pH 7.4.) and apyrase (0.02 U/mL). Platelets were rested for 30 minutes at 30° C. before treatment protocols were initiated.
Test compounds were prepared from 10 mM stocks in DMSO. Serial dilution of search test compounds stamped in duplicate into a 96 well plate using Multidrop Pico 8 Digital Dispenser. Platelets were loaded and incubated for 30 min at room temperature. Then a stimulation mix containing Thrombin (FAC: 0.5 U/ml)/Convulxin (FAC: 0.05 μg/ml)/Calcium (FAC: 2 mM) added per well except control/not stimulated wells (This is low signal control). Some wells received no treatment but DMSO vehicle control and used as high signal controls (FAC of DMSO set at 0.1% in all wells of the 96 well plate). The reaction mix incubated for 10 min at room temperature. During last 2 min of stimulation AnV-APC was added to detect surface PS exposure. Samples ten fixed and fluorescence was detected by MACSQuant X flow cytometry and 10 000 platelet events were collected. The percentage of AnV-APC positive platelets was calculated for each well. IC50 for each compound was then calculated using a standard four parameter curve fit model (GraphPad Prism).

SMILES | mPTP Rat liver pIC50 (mPTP [1]) | mPTP Rat brain pIC50 (mPTP [2]) | pIC50 (mPTP [3])
CC(c1ccccc1)C1(CNC(=O)c2nn(C)c(=O)[nH]2)CCC1 (single isomer, unassigned) [Example 26, 1-methyl-5-oxo-N-((1-(1-phenylethyl)cyclobutyl)methyl)-4,5-dihydro-1H-1,2,4-triazole-3-carboxamide] | 6.87 | 7.60 | 6.77
CC(c1ccccc1)C1(CNC(=O)c2nn(C)c(=O)[nH]2)CCC1 (single isomer, unassigned) [Example 27, 1-methyl-5-oxo-N-((1-(1-phenylethyl)cyclobutyl)methyl)-4,5-dihydro-1H-1,2,4-triazole-3-carboxamide] | 5.49 | 6.25 | 5.70
O=C(NCC1(Cc2ccc(F)cc2F)CC12CC2)c1nccc(=O)[nH]1 (single isomer, unassigned) [Example 235] | 6.79 | 7.65 | 7.31
Cn1nc(C(=O)NCC(C)(Cc2ccc(F)cc2F)C2CC2)[nH]c1=O (single isomer, unassigned) [Example 239, N-(2-cyclopropyl-3-(2,4-difluorophenyl)-2-methylpropyl)-1-methyl-5-oxo-4,5-dihydro-1H-1,2,4-triazole-3-carboxamide] | 7.10 | 8.07 | 7.39
CC(CNC(=O)c1nccc(=O)[nH]1)(Cc1ccc(F)cc1F)C1CC1 (single isomer, unassigned) [Example 243, N-(2-cyclopropyl-3-(2,4-difluorophenyl)-2-methylpropyl)-6-oxo-1,6-dihydropyrimidine-2-carboxamide] | 6.91 | 7.93 | 7.36
Cn1nc(C(=O)NCC2(Cc3ccc(F)c(F)c3F)CCC2)[nH]c1=O [Example 156] | 6.28 | 7.24 | 
Cn1nc(C(=O)NCC2(Cc3cc(F)c(F)cc3F)CCC2)[nH]c1=O [Example 157, 1-methyl-5-oxo-N-((1-(2,4,5-trifluorobenzyl)cyclobutyl)methyl)-4,5-dihydro-1H-1,2,4-triazole-3-carboxamide] | 7.03 | 7.81 | 
Cn1nc(C(=O)NC[C@H](Cc2cc(F)ccc2F)C2CC2)[nH]c1=O [Example 159] | 6.97 | 7.77 | 
O=C(NCC1(Cc2ccc(F)cc2F)CCC1)c1nccc(=O)[nH]1 [Example 160] | 6.28 | 7.7 | 
O=C(NCC1(Cc2cc(F)ccc2F)CCC1)c1cncc(=O)[nH]1 [Example 174] | 6.29 | 7.74 | 
O=C(NCC1(Cc2ccc(F)cc2F)CCC1)c1ccc(=O)[nH]n1 [Example 175] | 5.92 | 6.81 | 
O=C(NCC1(Cc2cccc(F)c2)CCC1)c1ccc(=O)[nH]n1 [Example 177] | 5.85 | 6.65 | 
CSc1ccccc1CC1(CNC(=O)c2nn(C)c(=O)[nH]2)CCC1 [Example 181] | 5.66 | 6.91 | 
CC[C@H](CNC(=O)c1nccc(=O)[nH]1)Cc1ccc(F)cc1F [Example 191] | 6.47 | 7.42 | 
O=C(NC[C@H](Cc1ccc(F)cc1F)C1CC1)c1nncc(=O)[nH]1 [Example 195, (R)-N-(2-cyclopropyl-3-(2,4-difluorophenyl)propyl)-5-oxo-4,5-dihydro-1,2,4-triazine-3-carboxamide] | 6.37 | 7.43 | 
O=C(NC[C@H](Cc1ccc(F)c(F)c1)C1CC1)c1noc(=O)[nH]1 [Example 203] | 6.48 | 7.66 | 
O=C(NCC1(Cc2ccc(F)cc2F)CCC1)c1noc(=O)[nH]1 [Example 205] | 6.15 | 7.38 | 
O=C(NC[C@H](Cc1cc(F)ccc1F)C1CC1)c1noc(=O)[nH]1 [Example 207] | 6.12 | 7.65 | 
CC(c1ccc(F)cc1F)[C@@H](CNC(=O)c1nn(C)c(=O)[nH]1)C1CC1 (some centres unmarked) [Example 238] | 5.15 | 6.21 | 
Cn1nc(C(=O)NC[C@H](Cc2ccc(F)cc2Cl)C2CC2)[nH]c1=O [Example 241, (R)-N-(3-(2-chloro-4-fluorophenyl)-2-cyclopropylpropyl)-1-methyl-5-oxo-4,5-dihydro-1H-1,2,4-triazole-3-carboxamide] | 6.81 | 7.73 | 
Cn1nc(C(=O)NC[C@@H](Cc2ccc(F)cc2Cl)C2CC2)[nH]c1=O [Example 242] | 4.95 | 5.39 | 
Cn1nc(C(=O)NC[C@H](Cc2ccc(F)cc2F)CC(F)(F)F)[nH]c1=O [Example 245, (R)-N-(2-(2,4-difluorobenzyl)-4,4,4-trifluorobutyl)-1-methyl-5-oxo-4,5-dihydro-1H-1,2,4-triazole-3-carboxamide] | 6.13 | 7.44 | 
Cn1nc(C(=O)NC[C@@H](Cc2ccc(F)cc2F)CC(F)(F)F)[nH]c1=O [Example 246] | 4.56 | 5.85 | 
O=C(NC[C@@H](Cc1ccc(F)cc1)C1CC1)c1nccc(=O)[nH]1 [Example 249] |  |  | 6.52
C[C@@](CNC(=O)c1ncc(Cl)c(=O)[nH]1)(Cc1ccc(F)cc1F)C1CC1 [Example 259, 5-chloro-N-[(2R)-2-cyclopropyl-3-(2,4-difluorophenyl)-2-methylpropyl]-4-oxo-3H-pyrimidine-2-carboxamide] | 6.46 | 8.22 | 
C[C@](CNC(=O)c1ncc(Cl)c(=O)[nH]1)(Cc1ccc(F)cc1F)C1CC1 [Example 260, 5-chloro-N-[(2S)-2-cyclopropyl-3-(2,4-difluorophenyl)-2-methylpropyl]-4-oxo-3H-pyrimidine-2-carboxamide] | 5.78 | 7.50 | 
Cn1nc(C(=O)N2CCC(C)(c3ccccc3)C2)[nH]c1=O (centres unmarked) [Reference Example 101, 2-methyl-5-(3-methyl-3-phenylpyrrolidine-1-carbonyl)-2,4-dihydro-3H-1,2,4-triazol-3-one] | <4.57 | <4.52 | 
Cn1nc(C(=O)N2CCC(c3ccccc3)CC2)[nH]c1=O [Reference Example 115, 2-methyl-5-(4-phenylpiperidine-1-carbonyl)-2,4-dihydro-3H-1,2,4-triazol-3-one] | <4.57 | <4.52 | 
Cc1cnc(C(=O)NCC(C)(Cc2ccc(F)cc2F)C2CC2)[nH]c1=O (centres unmarked) [compound 266] | 5.95 | 7.04 | 

Reference: patent publication US12491185B2, “Inhibitors of mPTP” (NRG Therapeutics Ltd, priority 2023, dated 2025)
